# Measurements: patent US8952024B2, “Herbicidal pyrimidone derivatives” (E I du Pont de Nemours and Company, priority 2009, dated 2015)
# Legend:
# Assay type in all cases: in vivo
# [1] = test system: giant foxtail (Setaria faberii); test: Test A pre-/postemergence plant response
# Outline: (§1)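 Injury scores (0, no effect; 100, complete control) come from visual comparison with untreated controls roughly ten days post-treatment. Test chemicals in a surfactant-containing non-phytotoxic solvent were applied as a directed soil spray preemergence and to one- to two-leaf seedlings postemergence.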
# [2] = test system: wheat (Triticum aestivum); test: Test A pre-/postemergence plant response
# Outline: as §1
# [3] = test system: large crabgrass (Digitaria sanguinalis); test: Test A pre-/postemergence plant response
# Outline: as §1
# [4] = test system: pigweed (Amaranthus retroflexus); test: Test A pre-/postemergence plant response
# Outline: as §1
# [5] = test system: morningglory (Ipomoea spp.); test: Test A pre-/postemergence plant response
# Outline: as §1
# [6] = test system: velvetleaf (Abutilon theophrasti); test: Test A pre-/postemergence plant response
# Outline: as §1
# [7] = test system: corn (Zea mays); test: Test A pre-/postemergence plant response
# Outline: as §1
# [8] = test system: barnyardgrass (Echinochloa crus-galli); test: Test A pre-/postemergence plant response
# Outline: as §1
# [9] = test system: ducksalad (Heteranthera limosa); test: Test B flooded paddy test; details: for Plant response rating, Flood, Ducksalad: 250 g ai/ha, flooded paddy test, visual rating on 0 to 100 scale (0 no effect, 100 complete control) after 13 to 15 days; for Plant response rating, Ducksalad: Flood (flooded paddy test), 13 to 15 days; for Ducksalad plant response rating: Flood, 31 g ai/ha, scale 0 to 100 (0 no effect, 100 complete control)
# Outline: (§2)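 Ratings are visual, 0–100 (100 = complete control), taken versus untreated controls 13 to 15 days after treatment in the greenhouse. Compound went straight into paddy water held 3 cm above soil, applied to 2-leaf-stage plants of four species.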
# [10] = test system: umbrella sedge (Cyperus difformis); test: Test B flooded paddy test; details: for Plant response rating, Flood, Sedge, Umbrella: 250 g ai/ha, flooded paddy test, visual rating on 0 to 100 scale (0 no effect, 100 complete control) after 13 to 15 days; for Plant response rating, Sedge, Umbrella: Flood (flooded paddy test), 13 to 15 days; for Sedge, Umbrella plant response rating: Flood, 31 g ai/ha, scale 0 to 100 (0 no effect, 100 complete control)
# Outline: as §2
# [11] = test system: rice (Oryza sativa); test: Test B flooded paddy test; details: for Plant response rating, Flood, Rice: 250 g ai/ha, flooded paddy test, visual rating on 0 to 100 scale (0 no effect, 100 complete control) after 13 to 15 days; for Plant response rating, Rice: Flood (flooded paddy test), 13 to 15 days; for Rice plant response rating: Flood, 31 g ai/ha, scale 0 to 100 (0 no effect, 100 complete control)
# Outline: as §2
# [12] = test system: barnyardgrass (Echinochloa crus-galli); test: Test B flooded paddy test; details: for Plant response rating, Flood, Barnyardgrass: 250 g ai/ha, flooded paddy test, visual rating on 0 to 100 scale (0 no effect, 100 complete control) after 13 to 15 days; for Plant response rating, Barnyardgrass: Flood (flooded paddy test), 13 to 15 days; for Barnyardgrass plant response rating: Flood, 31 g ai/ha, scale 0 to 100 (0 no effect, 100 complete control)
# Outline: as §2
# [13] = test system: winter barley (Hordeum vulgare); test: Test B postemergence plant response; details: for Barley plant response rating (0 to 100 scale): 62 g ai/ha, 0 is no effect, 13 to 15 days
# Outline: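 Plants grown in peat/vermiculite medium were sprayed postemergence at 2–18 cm height (1- to 4-leaf stage). After 13–15 days in the greenhouse, response was rated visually against untreated controls on a 0–100 scale (0 no effect, 100 complete control).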
# [14] = Postemergence, 125 g ai/ha, 0 to 100 scale where 0 is no effect and 100 is complete control
# [15] = Postemergence, 500 g ai/ha, 0 to 100 scale, 0 = no effect, 100 = complete control, approx. ten days
# [16] = Preemergence, 125 g ai/ha, 0 to 100 scale, 0 = no effect, 100 = complete control
# [17] = Preemergence, 500 g ai/ha, visual injury, 0 to 100 scale (0 no effect, 100 complete control), approx. ten days
# [18] = 62 g ai/ha, scale of 0 to 100 where 0 is no effect and 100 is complete control
# [19] = 125 g ai/ha, scale 0 to 100, 0 is no effect, 100 is complete control
# [20] = 31 g ai/ha, postemergence, scale 0 to 100, 0 is no effect, 100 is complete control
# [21] = postemergence, 100 is complete control
# [22] = Postemergence, 125 g ai/ha, visual rating after 13 to 15 days, scale 0 (no effect) to 100 (complete control)
# [23] = Postemergence, 250 g ai/ha, scale 0 to 100 (0 no effect, 100 complete control)
compound,measurement,setting,value
Cc1ccccc1-c1ncc(C(=O)C2=C(O)CCCC2=O)c(=O)n1-c1ccccc1 [Compound 82],"Plant response rating, Foxtail, Giant",[1]; [14],10
same,"Plant response rating, Foxtail, Giant",[1]; [15],80
same,"Plant response rating, Foxtail, Giant",[1]; [16],10
same,"Plant response rating, Foxtail, Giant",[1]; [17],40
same,"Plant response rating, Wheat",[2]; [14],0
same,"Plant response rating, Wheat",[2]; [15],0
same,"Plant response rating, Wheat",[2]; [16],0
same,"Plant response rating, Wheat",[2]; [17],0
same,"Plant response rating, Crabgrass, Large",[3]; [14],40
same,"Plant response rating, Crabgrass, Large",[3]; [15],90
same,"Plant response rating, Crabgrass, Large",[3]; [17],100
same,"Plant response rating, Pigweed",[4]; [14],90
same,"Plant response rating, Pigweed",[4]; [15],100
same,"Plant response rating, Pigweed",[4]; [16],90
same,"Plant response rating, Pigweed",[4]; [17],100
same,"Plant response rating, Morningglory",[5]; [14],90
same,"Plant response rating, Morningglory",[5]; [15],100
same,"Plant response rating, Morningglory",[5]; [16],0
same,"Plant response rating, Morningglory",[5]; [17],60
same,"Plant response rating, Velvetleaf",[6]; [14],100
same,"Plant response rating, Velvetleaf",[6]; [15],100
same,"Plant response rating, Velvetleaf",[6]; [16],50
same,"Plant response rating, Velvetleaf",[6]; [17],90
same,"Plant response rating, Corn",[7]; [14],0
same,"Plant response rating, Corn",[7]; [15],20
same,"Plant response rating, Corn",[7]; [16],0
same,"Plant response rating, Corn",[7]; [17],0
same,"Plant response rating, Barnyardgrass",[8]; [14],10
same,"Plant response rating, Barnyardgrass",[8]; [15],70
same,"Plant response rating, Barnyardgrass",[8]; [16],0
same,"Plant response rating, Barnyardgrass",[8]; [17],10
same,"Plant response rating, Flood, Ducksalad",[9],20
same,"Plant response rating, Ducksalad",[9]; [18],0
same,"Plant response rating, Ducksalad",[9]; [19],0
same,Ducksalad plant response rating,[9],0
same,"Plant response rating, Flood, Sedge, Umbrella",[10],50
same,"Plant response rating, Sedge, Umbrella",[10]; [18],0
same,"Plant response rating, Sedge, Umbrella",[10]; [19],40
same,"Sedge, Umbrella plant response rating",[10],0
same,"Plant response rating, Flood, Rice",[11],20
same,"Plant response rating, Rice",[11]; [18],0
same,"Plant response rating, Rice",[11]; [19],15
same,Rice plant response rating,[11],0
same,"Plant response rating, Flood, Barnyardgrass",[12],20
same,"Plant response rating, Barnyardgrass",[12]; [18],0
same,"Plant response rating, Barnyardgrass",[12]; [19],15
same,Barnyardgrass plant response rating,[12],0
same,"Plant response rating, Barley",[13]; [20],0
same,Barley plant response rating (0 to 100 scale),[13]; [21],0
same,"Plant response rating, Barley",[13]; [22],0
same,"Plant response rating, Barley",[13]; [23],5
CC(C)CC(=O)OC1=C(C(=O)c2cnc(-c3ccccc3)n(-c3ccccc3)c2=O)C(=O)CCC1 [Compound 83],"Plant response rating, Foxtail, Giant",[1]; [14],70
same,"Plant response rating, Foxtail, Giant",[1]; [15],90
same,"Plant response rating, Foxtail, Giant",[1]; [16],40
same,"Plant response rating, Foxtail, Giant",[1]; [17],90
same,"Plant response rating, Wheat",[2]; [14],0
same,"Plant response rating, Wheat",[2]; [15],0
same,"Plant response rating, Wheat",[2]; [16],0
same,"Plant response rating, Wheat",[2]; [17],30
same,"Plant response rating, Crabgrass, Large",[3]; [14],80
same,"Plant response rating, Crabgrass, Large",[3]; [15],90
same,"Plant response rating, Crabgrass, Large",[3]; [16],70
same,"Plant response rating, Crabgrass, Large",[3]; [17],100
same,"Plant response rating, Pigweed",[4]; [14],90
same,"Plant response rating, Pigweed",[4]; [15],100
same,"Plant response rating, Pigweed",[4]; [16],80
same,"Plant response rating, Pigweed",[4]; [17],100
same,"Plant response rating, Morningglory",[5]; [14],100
same,"Plant response rating, Morningglory",[5]; [15],100
same,"Plant response rating, Morningglory",[5]; [16],20
same,"Plant response rating, Morningglory",[5]; [17],60
same,"Plant response rating, Velvetleaf",[6]; [14],100
same,"Plant response rating, Velvetleaf",[6]; [15],100
same,"Plant response rating, Velvetleaf",[6]; [16],70
same,"Plant response rating, Velvetleaf",[6]; [17],100
same,"Plant response rating, Corn",[7]; [14],0
same,"Plant response rating, Corn",[7]; [15],30
same,"Plant response rating, Corn",[7]; [16],0
same,"Plant response rating, Corn",[7]; [17],20
same,"Plant response rating, Barnyardgrass",[8]; [14],70
same,"Plant response rating, Barnyardgrass",[8]; [15],90
same,"Plant response rating, Barnyardgrass",[8]; [16],30
same,"Plant response rating, Barnyardgrass",[8]; [17],90
same,"Plant response rating, Flood, Ducksalad",[9],50
same,"Plant response rating, Ducksalad",[9]; [18],30
same,"Plant response rating, Ducksalad",[9]; [19],40
same,Ducksalad plant response rating,[9],20
same,"Plant response rating, Flood, Sedge, Umbrella",[10],50
same,"Plant response rating, Sedge, Umbrella",[10]; [18],30
same,"Plant response rating, Sedge, Umbrella",[10]; [19],40
same,"Sedge, Umbrella plant response rating",[10],0
same,"Plant response rating, Flood, Rice",[11],30
same,"Plant response rating, Rice",[11]; [18],0
same,"Plant response rating, Rice",[11]; [19],0
same,Rice plant response rating,[11],0
same,"Plant response rating, Flood, Barnyardgrass",[12],40
same,"Plant response rating, Barnyardgrass",[12]; [18],0
same,"Plant response rating, Barnyardgrass",[12]; [19],15
same,Barnyardgrass plant response rating,[12],0
same,"Plant response rating, Barley",[13]; [20],0
same,Barley plant response rating (0 to 100 scale),[13]; [21],5
same,"Plant response rating, Barley",[13]; [22],5
same,"Plant response rating, Barley",[13]; [23],5
